According to ChEMBL document CHEMBL3785016, “Design, synthesis, and anti-breast cancer evaluation of new triarylethylene analogs bearing short alkyl- and polar amino-/amido-ethyl chains” (Bioorg Med Chem Lett, 2016):
Calls of active or inactive are those of the source. No cut-off for these calls is given here.

Experiments:
MCF7 [1] = experiment: Cytotoxicity against human ER-positive MCF7 cells assessed as cell viability after 72 hrs by MTT assay; assay type: functional, cell-based
MDA-MB-231 [2] = experiment: Cytotoxicity against human ER-negative MDA-MB-231 cells assessed as cell viability after 72 hrs by MTT assay; assay type: functional, cell-based; conditions: for IC50: MDA-MB-231, 72 h
MDA-MB-231 [3] = experiment: Antimigratory activity in human ER-negative MDA-MB-231 cells assessed as cell migration level at 0.5 uM after 24 hrs by scratch assay; assay type: functional
MDA-MB-231 [4] = experiment: Antimigratory activity in human ER-negative MDA-MB-231 cells assessed as cell migration level at 1 uM after 24 hrs by scratch assay; assay type: functional
MDA-MB-231 [5] = experiment: Inhibition of MMP9 expression in human ER-negative MDA-MB-231 cells after 24 hrs by western blotting; assay type: functional, cell-based
MDA-MB-231 [6] = experiment: Inhibition of c-Myc expression in human ER-negative MDA-MB-231 cells after 24 hrs by western blotting; assay type: functional, cell-based
MDA-MB-231 [7] = experiment: Inhibition of caveolin-1 expression in human ER-negative MDA-MB-231 cells after 24 hrs by western blotting; assay type: functional, cell-based
MCF7 [8] = experiment: Inhibition of MMP9 expression in human ER-positive MCF7 cells after 24 hrs by western blotting; assay type: functional, cell-based
MCF7 [9] = experiment: Inhibition of c-Myc expression in human ER-positive MCF7 cells after 24 hrs by western blotting; assay type: functional, cell-based
MCF7 [10] = experiment: Inhibition of caveolin-1 expression in human ER-positive MCF7 cells after 24 hrs by western blotting; assay type: functional, cell-based
MDA-MB-231 [11] = experiment: Inhibition of cell invasion in human ER-negative MDA-MB-231 cells after 24 hrs by Boyden chamber transwell invasion assay; assay type: functional, cell-based
MDA-MB-231 [12] = experiment: Inhibition of c-Myc expression in human ER-negative MDA-MB-231 cells at 10 and 25 uM after 24 hrs by western blotting; assay type: functional, cell-based
MCF7 [13] = experiment: Inhibition of caveolin-1 expression in human ER-positive MCF7 cells at 10 and 25 uM after 24 hrs by western blotting; assay type: functional, cell-based
MCF7 [14] = experiment: Inhibition of c-Myc expression in human ER-positive MCF7 cells at 10 and 25 uM after 24 hrs by western blotting; assay type: functional, cell-based
MCF7 [15] = experiment: Inhibition of MMP9 expression in human ER-positive MCF7 cells at 10 and 25 uM after 24 hrs by western blotting; assay type: functional, cell-based
MDA-MB-231 [16] = experiment: Inhibition of caveolin-1 expression in human ER-negative MDA-MB-231 cells at 10 and 25 uM after 24 hrs by western blotting; assay type: functional, cell-based
MDA-MB-231 [17] = experiment: Inhibition of MMP9 expression in human ER-negative MDA-MB-231 cells at 10 and 25 uM after 24 hrs by western blotting; assay type: functional, cell-based
[18] = Homo sapiens, MCF7, 72 h, read-out: IC50

Compound: COc1ccc(/C(=C(/CCNC(=O)C(=O)N2CCCC2)c2ccccc2)c2ccccc2)cc1
- IC50 (MCF7 [1]; [18]): > 50 µM
- IC50 (MDA-MB-231 [2]): 48.6 µM

Compound: COc1ccc(/C(=C(/CCNC(=O)NC2CCCCC2)c2ccccc2)c2ccccc2)cc1
- IC50 (MCF7 [1]; [18]): 37.2 µM
- IC50 (MDA-MB-231 [2]): > 50 µM

Compound: COc1ccc(/C(=C(/CCN=[N+]=[N-])c2ccccc2)c2ccccc2)cc1
- IC50 (MCF7 [1]; mcf7): Not Active
- Activity (MDA-MB-231 [2]): inactive

Compound: COc1ccc(/C(=C(/CCNC(=O)N2CCOCC2)c2ccccc2)c2ccccc2)cc1
- IC50 (MCF7 [1]; [18]): > 50 µM
- IC50 (MDA-MB-231 [2]): 42.8 µM

Compound: COc1ccc(/C(=C(/CCN)c2ccccc2)c2ccccc2)cc1
- Activity (MDA-MB-231 [3]): 60%
- Activity (MDA-MB-231 [4]): 25%
- inhibition (MDA-MB-231 [5]): Dose-dependent effect
- inhibition (MDA-MB-231 [6]): Dose-dependent effect
- inhibition (MDA-MB-231 [7]): Dose-dependent effect
- inhibition (MCF7 [8]): Dose-dependent effect
- inhibition (MCF7 [9]): Dose-dependent effect
- inhibition (MCF7 [10]): Dose-dependent effect
- inhibition (MDA-MB-231 [11]): Dose-dependent effect

Compound: CCN(CC)C(=O)NCC/C(=C(\c1ccccc1)c1ccc(OC)cc1)c1ccccc1
- IC50 (MCF7 [1]; [18]): > 50 µM
- IC50 (MDA-MB-231 [2]): 40.7 µM

Compound: COc1ccc(/C(=C(/CCNC(=O)NCc2ccccc2)c2ccccc2)c2ccccc2)cc1
- IC50 (MCF7 [1]; [18]): > 50 µM
- IC50 (MDA-MB-231 [2]): > 50 µM

Compound: CCOC(=O)C(=O)NCC/C(=C(\c1ccccc1)c1ccc(OC)cc1)c1ccccc1
- IC50 (MCF7 [1]; [18]): > 50 µM
- IC50 (MDA-MB-231 [2]): > 50 µM

Compound: COc1ccc(/C(=C(/CCNC(=O)C(=O)NC2CCCCC2)c2ccccc2)c2ccccc2)cc1
- Activity (MDA-MB-231 [4]): inactive
- inhibition (MDA-MB-231 [12]): Active
- inhibition (MCF7 [13]): inactive
- inhibition (MCF7 [14]): Active
- inhibition (MCF7 [15]): Active
- inhibition (MDA-MB-231 [16]): inactive
- inhibition (MDA-MB-231 [17]): Active
- IC50 (MCF7 [1]; [18]): 12.1 µM
- IC50 (MDA-MB-231 [2]): 12.2 µM

Compound: COc1ccc(/C(=C(/CCNC(=O)C(=O)N2CCCCC2)c2ccccc2)c2ccccc2)cc1
- IC50 (MCF7 [1]; [18]): > 50 µM
- IC50 (MDA-MB-231 [2]): > 50 µM

Compound: COc1ccc(/C(=C(/CCNC(=O)C(=O)N2CCOCC2)c2ccccc2)c2ccccc2)cc1
- IC50 (MCF7 [1]; [18]): 43.4 µM
- IC50 (MDA-MB-231 [2]): 20 µM

Compound: COc1ccc(/C(=C(/CCCl)c2ccccc2)c2ccccc2)cc1
- IC50 (MCF7 [1]; [18]): > 50 µM
- IC50 (MDA-MB-231 [2]): > 50 µM

Compound: COc1ccc(/C(=C(/CCNC(=O)N2CCCC2)c2ccccc2)c2ccccc2)cc1
- IC50 (MCF7 [1]; [18]): > 50 µM
- IC50 (MDA-MB-231 [2]): > 50 µM

Compound: OCCOc1ccc(/C(=C(/CCCl)c2ccccc2)c2ccccc2)cc1 [OSPEMIFENE]
- Activity (MDA-MB-231 [4]): inactive
- IC50 (MCF7 [1]; [18]): > 50 µM
- IC50 (MDA-MB-231 [2]): > 50 µM

Compound: COc1ccc(/C(=C(/CCNC(=O)N2CCCCC2)c2ccccc2)c2ccccc2)cc1
- IC50 (MCF7 [1]; [18]): > 50 µM
- IC50 (MDA-MB-231 [2]): > 50 µM

Compound: COc1ccc(/C(=C(/CCNC(=O)Oc2ccccc2)c2ccccc2)c2ccccc2)cc1
- IC50 (MCF7 [1]; mcf7): Not Active
- Activity (MDA-MB-231 [2]): inactive

Compound: COc1ccc(/C(=C(/CCNC(=O)C(=O)NCc2ccccc2)c2ccccc2)c2ccccc2)cc1
- Activity (MDA-MB-231 [4]): inactive
- inhibition (MDA-MB-231 [12]): Active
- inhibition (MCF7 [13]): inactive
- inhibition (MCF7 [14]): Active
- inhibition (MCF7 [15]): Active
- inhibition (MDA-MB-231 [16]): inactive
- inhibition (MDA-MB-231 [17]): Active
- IC50 (MCF7 [1]; [18]): > 50 µM
- IC50 (MDA-MB-231 [2]): 11.5 µM
